ChEMBL document CHEMBL3991601, “The target landscape of clinical kinase drugs” (Science, 2017)
The source made the active and inactive calls. Cut-off read from the data, not from the text of the source, for most assays here: actives have a measured Kd and inactives only a lower limit.

What was measured:
[1] = target: Cyclin-dependent kinase 3 (Homo sapiens, UniProt Q00526)
[2] = target: T1, Succinate--CoA ligase [ADP-forming] subunit beta, mitochondrial (Homo sapiens, UniProt Q9P2R7)
T1 sequence (Q9P2R7 whole entry): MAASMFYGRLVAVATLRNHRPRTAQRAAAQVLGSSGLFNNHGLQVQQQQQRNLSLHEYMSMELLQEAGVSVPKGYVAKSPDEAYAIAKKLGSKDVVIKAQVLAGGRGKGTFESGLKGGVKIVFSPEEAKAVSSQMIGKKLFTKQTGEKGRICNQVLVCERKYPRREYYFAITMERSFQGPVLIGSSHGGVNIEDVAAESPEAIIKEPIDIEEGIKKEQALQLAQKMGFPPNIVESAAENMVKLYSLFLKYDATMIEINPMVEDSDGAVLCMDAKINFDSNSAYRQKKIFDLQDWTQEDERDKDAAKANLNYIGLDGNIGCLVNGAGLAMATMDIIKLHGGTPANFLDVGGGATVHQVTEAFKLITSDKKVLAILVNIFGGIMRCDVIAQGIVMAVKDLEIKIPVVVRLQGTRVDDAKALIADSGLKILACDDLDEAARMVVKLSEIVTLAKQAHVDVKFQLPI

Activin receptor type-1B = target: T2, Activin receptor type-1B (Homo sapiens, UniProt P36896)
T2 sequence (P36896 whole entry): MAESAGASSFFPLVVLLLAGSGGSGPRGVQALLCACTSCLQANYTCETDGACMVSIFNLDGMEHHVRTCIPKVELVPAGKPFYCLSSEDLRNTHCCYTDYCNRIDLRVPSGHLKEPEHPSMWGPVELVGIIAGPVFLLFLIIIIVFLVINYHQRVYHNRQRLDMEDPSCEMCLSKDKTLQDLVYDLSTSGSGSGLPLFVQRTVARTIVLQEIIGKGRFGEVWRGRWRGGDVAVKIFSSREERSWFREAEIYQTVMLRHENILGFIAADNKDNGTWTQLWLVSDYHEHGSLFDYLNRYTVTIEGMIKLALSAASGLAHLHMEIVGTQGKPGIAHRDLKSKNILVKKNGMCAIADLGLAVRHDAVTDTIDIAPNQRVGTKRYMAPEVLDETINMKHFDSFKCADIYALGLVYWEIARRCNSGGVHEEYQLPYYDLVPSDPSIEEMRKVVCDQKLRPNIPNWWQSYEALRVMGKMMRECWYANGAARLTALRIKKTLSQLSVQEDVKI

[3] = target: Calcium/calmodulin-dependent protein kinase type II subunit gamma (Homo sapiens, UniProt Q13555)
Sequence of Calcium/calmodulin-dependent protein kinase type II subunit gamma (Q13555 whole entry): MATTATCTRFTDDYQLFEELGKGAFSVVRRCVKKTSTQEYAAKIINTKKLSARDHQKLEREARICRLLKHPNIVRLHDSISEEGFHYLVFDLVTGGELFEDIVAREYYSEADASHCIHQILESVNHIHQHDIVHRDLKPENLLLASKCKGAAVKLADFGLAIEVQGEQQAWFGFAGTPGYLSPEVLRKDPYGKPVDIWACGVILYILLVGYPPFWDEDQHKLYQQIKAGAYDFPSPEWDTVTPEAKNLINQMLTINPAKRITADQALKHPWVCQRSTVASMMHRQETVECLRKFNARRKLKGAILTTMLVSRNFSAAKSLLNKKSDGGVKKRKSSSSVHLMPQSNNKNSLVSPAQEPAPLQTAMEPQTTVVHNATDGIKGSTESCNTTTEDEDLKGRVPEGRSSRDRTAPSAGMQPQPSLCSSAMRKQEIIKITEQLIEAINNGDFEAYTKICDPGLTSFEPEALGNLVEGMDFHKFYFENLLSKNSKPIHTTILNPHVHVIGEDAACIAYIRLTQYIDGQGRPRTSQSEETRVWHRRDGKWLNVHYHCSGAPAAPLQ

[4] = target: T3, Serine/threonine-protein kinase TAO3 (Homo sapiens, UniProt Q9H2K8)
T3 sequence (Q9H2K8 whole entry): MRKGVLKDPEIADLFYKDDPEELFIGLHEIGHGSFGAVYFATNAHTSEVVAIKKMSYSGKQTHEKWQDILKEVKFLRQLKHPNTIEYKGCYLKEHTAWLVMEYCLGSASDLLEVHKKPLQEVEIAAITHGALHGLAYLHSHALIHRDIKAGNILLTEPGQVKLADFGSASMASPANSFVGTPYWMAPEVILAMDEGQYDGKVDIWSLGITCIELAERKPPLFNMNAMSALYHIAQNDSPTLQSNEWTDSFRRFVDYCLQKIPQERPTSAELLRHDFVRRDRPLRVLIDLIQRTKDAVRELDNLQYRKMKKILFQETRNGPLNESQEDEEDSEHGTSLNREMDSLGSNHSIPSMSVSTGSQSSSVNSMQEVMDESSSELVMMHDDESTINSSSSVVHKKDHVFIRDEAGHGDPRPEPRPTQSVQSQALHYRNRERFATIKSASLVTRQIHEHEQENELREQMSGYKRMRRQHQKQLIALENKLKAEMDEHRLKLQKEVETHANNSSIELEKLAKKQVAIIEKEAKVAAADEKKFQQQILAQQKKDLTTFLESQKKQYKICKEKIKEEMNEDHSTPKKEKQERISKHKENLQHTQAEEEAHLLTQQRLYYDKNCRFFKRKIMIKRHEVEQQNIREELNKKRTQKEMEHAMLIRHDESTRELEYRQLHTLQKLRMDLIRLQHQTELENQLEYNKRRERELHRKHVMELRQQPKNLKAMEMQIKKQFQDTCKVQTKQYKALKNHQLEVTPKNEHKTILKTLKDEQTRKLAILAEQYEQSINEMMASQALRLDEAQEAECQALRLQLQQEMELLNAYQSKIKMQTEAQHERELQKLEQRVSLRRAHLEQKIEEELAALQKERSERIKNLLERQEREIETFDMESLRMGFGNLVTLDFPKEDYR

[5] = target: T4, ATP-dependent RNA helicase DDX42 (Homo sapiens, UniProt Q86XP3)
T4 sequence (Q86XP3 whole entry): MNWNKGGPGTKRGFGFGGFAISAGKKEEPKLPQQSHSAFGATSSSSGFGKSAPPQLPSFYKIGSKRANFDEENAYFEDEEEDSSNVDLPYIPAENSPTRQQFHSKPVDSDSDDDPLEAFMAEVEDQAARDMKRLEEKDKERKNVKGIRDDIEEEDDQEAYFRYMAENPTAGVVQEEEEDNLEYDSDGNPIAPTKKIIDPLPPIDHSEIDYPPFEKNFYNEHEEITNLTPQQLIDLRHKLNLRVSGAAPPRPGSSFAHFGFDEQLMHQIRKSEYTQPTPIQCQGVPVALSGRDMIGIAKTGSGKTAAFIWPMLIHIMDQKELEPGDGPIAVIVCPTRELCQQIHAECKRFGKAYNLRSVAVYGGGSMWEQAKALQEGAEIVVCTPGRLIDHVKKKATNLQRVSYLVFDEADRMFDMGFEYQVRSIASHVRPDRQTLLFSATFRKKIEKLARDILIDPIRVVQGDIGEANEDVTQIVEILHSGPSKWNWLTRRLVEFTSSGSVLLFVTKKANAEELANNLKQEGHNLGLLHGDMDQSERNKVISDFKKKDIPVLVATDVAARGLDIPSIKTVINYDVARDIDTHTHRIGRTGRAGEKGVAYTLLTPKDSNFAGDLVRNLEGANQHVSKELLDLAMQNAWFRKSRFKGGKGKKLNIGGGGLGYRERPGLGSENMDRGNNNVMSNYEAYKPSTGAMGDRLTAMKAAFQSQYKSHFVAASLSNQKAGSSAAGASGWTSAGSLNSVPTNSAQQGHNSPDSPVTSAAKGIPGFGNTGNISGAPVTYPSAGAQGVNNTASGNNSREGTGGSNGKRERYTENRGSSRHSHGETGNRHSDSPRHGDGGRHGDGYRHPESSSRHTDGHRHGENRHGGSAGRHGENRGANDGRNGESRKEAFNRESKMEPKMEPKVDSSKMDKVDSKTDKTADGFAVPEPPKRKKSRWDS

[6] = target: Adenylate kinase 2, mitochondrial (Homo sapiens, UniProt P54819)
Note: in the data inactive means no Kd found up to 30 µM.

Sequence of Cyclin-dependent kinase 3 (Q00526 whole entry): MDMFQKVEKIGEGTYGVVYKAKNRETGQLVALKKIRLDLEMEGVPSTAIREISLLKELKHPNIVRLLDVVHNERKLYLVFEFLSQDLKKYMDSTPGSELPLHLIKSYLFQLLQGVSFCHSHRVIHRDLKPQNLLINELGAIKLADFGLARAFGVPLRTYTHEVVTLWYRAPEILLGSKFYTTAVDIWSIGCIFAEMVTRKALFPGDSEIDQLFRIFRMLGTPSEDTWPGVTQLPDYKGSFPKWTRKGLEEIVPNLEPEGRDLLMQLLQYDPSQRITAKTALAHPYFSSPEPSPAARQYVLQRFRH

| Structure (SMILES) | Kd [1] | Kd [2] | Kd (Activin receptor type-1B) | Kd [3] | Kd [4] | Kd [5] | Kd [6] |
| --- | --- | --- | --- | --- | --- | --- | --- |
| CC(=O)Nc1cccc(-n2c(=O)n(C3CC3)c(=O)c3c(Nc4ccc(I)cc4F)n(C)c(=O)c(C)c32)c1 [TRAMETINIB] | > 30 µM (inactive) | > 30 µM (inactive) | > 30 µM (inactive) | > 30 µM (inactive) | > 30 µM (inactive) | > 30 µM (inactive) | > 30 µM (inactive) |
| CN1N=C(N)c2cn([C@@H]3O[C@H](COP(=O)(O)O)[C@@H](O)[C@H]3O)c3ncnc1c23 [TRICIRIBINE PHOSPHATE] | > 30 µM (inactive) | > 30 µM (inactive) | > 30 µM (inactive) | > 30 µM (inactive) | > 30 µM (inactive) | > 30 µM (inactive) | > 30 µM (inactive) |
| CC(C)Nc1cc(-c2c[nH]c(C(=O)N[C@H](CO)c3cccc(Cl)c3)c2)c(Cl)cn1 [ULIXERTINIB] | > 30 µM (inactive) | > 30 µM (inactive) | > 30 µM (inactive) | > 30 µM (inactive) | > 30 µM (inactive) | > 30 µM (inactive) | > 30 µM (inactive) |

Now from value to molecule:

| Kd [1] | Kd [2] | Kd (Activin receptor type-1B) | Kd [3] | Kd [4] | Kd [5] | Kd [6] | Structure (SMILES) |
| --- | --- | --- | --- | --- | --- | --- | --- |
| > 30 µM (inactive) | > 30 µM (inactive) | > 30 µM (inactive) | > 30 µM (inactive) | > 30 µM (inactive) | > 30 µM (inactive) | > 30 µM (inactive) | CCCS(=O)(=O)Nc1ccc(F)c(C(=O)c2c[nH]c3ncc(-c4ccc(Cl)cc4)cc23)c1F [VEMURAFENIB] |
| > 30 µM (inactive) | > 30 µM (inactive) | > 30 µM (inactive) | > 30 µM (inactive) | > 30 µM (inactive) | > 30 µM (inactive) | > 30 µM (inactive) | CC[C@@H]1C(=O)N(C)c2cnc(Nc3ccc(C(=O)N[C@H]4CC[C@H](N5CCN(CC6CC6)CC5)CC4)cc3OC)nc2N1C(C)C [VOLASERTIB] |
| > 30 µM (inactive) | > 30 µM (inactive) | > 30 µM (inactive) | > 30 µM (inactive) | > 30 µM (inactive) | > 30 µM (inactive) | > 30 µM (inactive) | CCn1c(=O)c(-c2cc[nH]n2)cc2c(C)nc(N)nc21 [VOXTALISIB] |
| > 30 µM (inactive) | > 30 µM (inactive) | > 30 µM (inactive) | > 30 µM (inactive) | > 30 µM (inactive) | > 30 µM (inactive) | > 30 µM (inactive) | O=C(Nc1ccc(-c2ccnc(Nc3ccc(N4CCOCC4)cc3)n2)cc1)C1CCCN1 (centres undefined) [XL-019] |
